Several values for one entry are separate records, joined by “and”; a condition that tells them apart may be missing. Equal entries are not always repeated.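 Cells were grown in 96-well plates and exposed to each compound for 48 hours at five concentrations; endpoints were interpolated linearly between bracketing concentrations, or set to the highest concentration if not reached. At the GI50, growth is halved. TGI is the concentration that stops growth completely.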
Key:
Assay in all cases: growth of human tumour cells (NCI), 48 h
[1] = tested on: 786-0 renal
[2] = tested on: A549 NSCLC
[3] = tested on: CCRF-CEM leukemia
[4] = tested on: HCC-2998 colon
[5] = tested on: HL-60(TB) leukemia
[6] = tested on: NCI-H226 lung
[7] = tested on: NCI-H522 lung
[8] = tested on: SF-295 CNS
[9] = tested on: SR leukemia
[10] = tested on: UO-31 renal

SMILES	TGI [1] [µM]	TGI [2]	TGI [3] [µM]	TGI [4]	TGI [5] [µM]	TGI [6]	TGI [7] [µM]	TGI [8]	TGI [9]	TGI [10] [µM]	GI50 [2] [µM]	GI50 [3]	GI50 [4] [µM]	GI50 [6] [µM]	GI50 [8] [µM]	GI50 [9] [µM]	GI50 [5] [µM]	GI50 [7] [µM]	GI50 [10] [µM]
[O-]/[N+](=C\c1ccccc1OC(=S)S)c1ccc(Cl)cc1	50.3	> 100 µM	> 100	> 100 µM	45	> 100 µM	52.8	> 100 µM	> 100 µM	76.6	–	–	–	–	–	–	–	–	–
O=c1cc(-c2cc(O)c(O)c(-c3c(O)cc4oc(-c5ccc(O)c(O)c5)cc(=O)c4c3O)c2)oc2cc(O)cc(O)c12	–	> 25 µM	> 25	> 25 µM	> 25	> 25 µM	–	> 25 µM	> 25 µM	> 25	–	–	–	–	–	–	–	–	–
COc1c(O)c2c(=O)cc(OC)c3c4c(OC)cc(=O)c5c(O)c(OC)c6c(c(c1C(C(C)O)C6C(C)O)c23)c54 (stereo unspecified)	4.78	2.66 µM	3.23	1.65 µM	1.67	5.46 µM	3.82	1.97 µM	5.37 µM	2.3	–	–	–	–	–	–	–	–	–
N#Cc1c(-c2ccccc2)cc(-c2ccc(Cl)cc2)[nH]c1=S	> 100	> 100 µM	86	> 100 µM	> 100	80.5 µM	70.5	83.7 µM	> 100 µM	> 100	–	–	–	–	–	–	–	–	–
O=C(N/N=C/c1ccc(Br)cc1)N/N=C/c1ccc(Br)cc1	13.4	> 100 µM	31	91.4 µM	31.1	22.9 µM	–	19.6 µM	17.7 µM	30.5	–	–	–	–	–	–	–	–	–
C=Cc1ccccc1C1(O)C=CC(OC)(OC)C=C1	16.4	36.9 µM	8.46	33.4 µM	6.38	80.9 µM	23.9	32.5 µM	7.02 µM	19.8	–	–	–	–	–	–	–	–	–
COC(=O)C1(Cc2ccc3c(c2)CCC3)Cc2ccccc2C1	> 100	> 100 µM	30.8	> 100 µM	42.4	> 100 µM	77.1	> 100 µM	> 100 µM	> 100	–	–	–	–	–	–	–	–	–
CC(=O)OCc1c(O)c2c(c(O)c1COC(C)=O)C(=O)C=CC2=O	–	35.9 µM	13.7	31.3 µM	46.7	32.5 µM	–	27.4 µM	> 100 µM	29	–	–	–	–	–	–	–	–	–
CO[C@@H]1O[C@H](C(=O)c2ccccc2)[C@H]2OC(C)(C)O[C@@H]12	> 100	–	> 100	> 100 µM	> 100	> 100 µM	> 100	> 100 µM	> 100 µM	> 100	–	–	–	–	–	–	–	–	–
O=c1cc(-c2ccccc2)oc2c(-c3cc(Cl)cc4c(=O)cc(-c5ccccc5)oc34)cc(Cl)cc12	> 100	> 100 µM	54.6	> 100 µM	> 100	83 µM	55.3	> 100 µM	> 100 µM	60.4	–	–	–	–	–	–	–	–	–
CCOC(=O)c1cn2c(n1)sc1cc(Cl)cc(Cl)c12	> 100	> 100 µM	> 100	> 100 µM	–	> 100 µM	> 100	> 100 µM	> 100 µM	> 100	–	–	–	–	–	–	–	–	–
O=c1[nH]c(Nc2cccc(CO)c2)nc2nc[nH]c12	> 100	> 100 µM	> 100	> 100 µM	> 100	> 100 µM	> 100	> 100 µM	> 100 µM	> 100	–	–	–	–	–	–	–	–	–
OCc1ccc2c(c1)CC1(Cc3ccc(/C=N/O)cc3C1)C2 (stereo unspecified)	> 100	> 100 µM	> 100	11.5 µM	–	71 µM	10.8	> 40.8 µM	> 100 µM	80.9	–	–	–	–	–	–	–	–	–
Cc1cnc2c(c1)C(=O)C1=C(C2=O)C2OC(=O)CC2OC1(C)C (stereo unspecified)	0.9	5.62 µM	0.151	0.822 µM	0.0142	2.31 µM	0.148	2.68 µM	0.29 µM	1.26	–	–	–	–	–	–	–	–	–
O=C(Nc1noc(-c2ccccc2)n1)c1ccccc1CNc1noc(-c2ccccc2)n1	> 100	> 100 µM	> 100	> 100 µM	> 100	> 100 µM	> 100	> 100 µM	> 100 µM	> 100	–	–	–	–	–	–	–	–	–
COc1cc2c(cc1Cc1c(F)cccc1Cl)nc(-c1c(F)cccc1Cl)n2Cc1c(F)cccc1Cl	64.2	> 100 µM	> 100	76.7 µM	> 100	> 100 µM	59	41.3 µM	> 100 µM	> 100	–	–	–	–	–	–	–	–	–
C1=C\SS/C=C\SS/1	35.8	> 100 µM	7.09	> 100 µM	35.4	> 100 µM	–	> 100 µM	> 100 µM	> 100	–	–	–	–	–	–	–	–	–
Nc1nn2c(=O)c3ccccc3nc2s1	> 100	> 100 µM	46.9	> 100 µM	–	91.1 µM	50.3	> 100 µM	44.7 µM	> 100	–	–	–	–	–	–	–	–	–
O=C(c1ccncc1)C1C(=O)c2ccccc2C1C1(O)c2ccccc2CC1C(O)c1ccncc1 (stereo unspecified)	> 100	> 100 µM	–	> 100 µM	–	> 100 µM	> 100	> 100 µM	> 100 µM	29	–	–	–	–	–	–	–	–	–
COC1=C(C)C(=O)c2c(c(COC(N)=O)c3n2CC(OC(C)=O)C3OC(C)=O)C1=O (stereo unspecified)	0.0581	1.6 µM	13.8	0.262 µM	0.202	1.39 µM	0.0379	0.657 µM	0.0442 µM	0.49	–	–	–	–	–	–	–	–	–
CC1(C)[C@H]2CC[C@@]13C(=O)N1C(=O)O[C@@H]([C@H]1Cl)C(Cl)(COCc1ccccc1)C(=O)OCCO[C@H]3C2 (stereo partly specified)	> 100	> 100 µM	> 100	> 100 µM	> 100	–	> 100	> 100 µM	> 100 µM	> 100	–	–	–	–	–	–	–	–	–
O=c1cc(N2CCCC2)[nH]c(=O)n1-c1ccccc1	> 100	> 100 µM	> 100	> 100 µM	> 100	> 100 µM	> 100	> 100 µM	> 100 µM	–	–	–	–	–	–	–	–	–	–

SMILES	TGI [1] [µM]	TGI [2]	TGI [3] [µM]	TGI [4]	TGI [5] [µM]	TGI [6]	TGI [7] [µM]	TGI [8]	TGI [9]	TGI [10] [µM]	GI50 [2] [µM]	GI50 [3]	GI50 [4] [µM]	GI50 [6] [µM]	GI50 [8] [µM]	GI50 [9] [µM]	GI50 [5] [µM]	GI50 [7] [µM]	GI50 [10] [µM]
COC(=O)/C(C#N)=C(/NCCN)Nc1ccccc1	> 100	> 100 µM	–	> 100 µM	> 100	> 100 µM	> 100	> 100 µM	> 100 µM	> 100	–	–	–	–	–	–	–	–	–
O=C1NCN(c2ccccc2)C12CCN(CCCN1CCN(CCOC(c3ccc(F)cc3)c3ccc(F)cc3)CC1)CC2	3.2	4.14 µM	> 100	2.93 µM	–	3.84 µM	3.69	3.38 µM	6.67 µM	3.25	–	–	–	–	–	–	–	–	–
COC(=O)[C@H](Cc1ccccc1)NC(=O)CCCCCCC(=O)NO	> 100	> 100 µM	> 100	42.5 µM	> 100	> 100 µM	30.6	44.6 µM	> 100 µM	> 100	–	–	–	–	–	–	–	–	–
C=C1c2nc3ccccc3n2C=C(c2ccc(Cl)cc2)N1c1ccc(OC)cc1	20.7	30.4 µM	> 100	28.3 µM	> 100	15.6 µM	18.5	18.5 µM	> 100 µM	19.4	–	–	–	–	–	–	–	–	–
C=C(CN(C)C)C(=O)c1ccccc1[N+](=O)[O-]	27	> 70.5 µM and 41.1 µM	8.06	> 56.5 µM and 29.2 µM	8.2	> 58.3 µM and 47 µM	7.74	50.7 µM and 32.9 µM	> 33.3 µM and 5.74 µM	32.2	22.2	2.7 µM and 2.18 µM	15.3	20.9	17.7	1.65	–	–	–
CN(C)CC1CCC(CN(C)C)C1=O (stereo unspecified)	4.11	39 µM	> 100	32.9 µM	–	38.8 µM	0.359	32.8 µM	> 100 µM	14	–	0.319 µM	–	–	–	–	–	–	–
CSc1n[nH]c(N)c1C(=O)Nc1ccccc1	> 100	> 100 µM	> 100	> 100 µM	> 100	> 100 µM	> 100	–	> 100 µM	> 100	–	–	–	–	–	–	–	–	–
C[n+]1c(-c2ccc(/C=C/C=N\NC(=O)c3ccc(C(=O)N/N=C\C=C\c4ccc(-c5cn6ccccc6[n+]5C)cc4)cc3)cc2)cn2ccccc21	> 56.2	> 100 µM	> 58.2	> 100 µM	> 65.7	> 100 µM	> 100	> 100 µM	42.3 µM	> 100	–	–	–	–	–	–	–	–	–
CCOC(=O)c1nc2cc(C(F)(F)F)ccc2nc1Nc1ccc(C(=O)NC(C(=O)OCC)C(=O)OCC)cc1	27.6	–	> 100	> 100 µM	> 100	34.8 µM	40.3	30.8 µM	> 100 µM	91.9	–	–	–	–	–	–	–	–	–
CN(C)CCC(=O)/C=C\c1ccccc1	29.8	48.3 µM	25	–	36.8	49.3 µM	39.3	45.5 µM	35.1 µM	34	–	–	–	–	–	–	–	–	–
COc1cc(/C=C/C=C2\CC/C(=C\C=C\c3ccc(O)c(OC)c3)C2=O)ccc1O	> 100	> 100 µM	8.26	> 100 µM	> 63.8	> 100 µM	25.9	> 100 µM	17.9 µM	> 100	–	–	–	–	–	–	–	–	–
O=C1CSC2=NC3=C(COC/C3=C\c3ccc(Br)cc3)C(c3ccc(Br)cc3)N12 (stereo unspecified)	> 100	–	61.9	> 100 µM	36.9	> 100 µM	> 100	> 100 µM	60.9 µM	> 100	–	–	–	–	–	–	–	–	–
Cc1ccc(/C=C2\Cc3c(C)cc(C)cc3C2=O)c(C(=O)O)c1	> 100	> 100 µM	> 100	98.6 µM	65.5	71.4 µM	> 100	> 100 µM	68.7 µM	> 100	–	–	–	–	–	–	–	–	–
CCOC(=O)C#Cc1ccccc1	21.5	58.3 µM	12.4	27.8 µM	36.5	> 100 µM	–	30.2 µM	4.76 µM	2.11	–	–	–	–	–	–	–	–	–
CC(=O)c1ccc2c(c1)CC1(C2)Cc2ccccc2C1=O (stereo unspecified)	> 100	> 100 µM	> 100	> 100 µM	70	> 100 µM	99.6	> 100 µM	> 100 µM	> 100	–	–	–	–	–	–	–	–	–
COc1ccc(C2c3cc4c(cc3OC(N3CCOCC3)C2C)OCO4)c(OC)c1OC (stereo unspecified)	43.2	> 100 µM	55.4	25 µM	–	–	29.7	43 µM	35.6 µM	35.1	–	–	–	–	–	–	–	–	–
COc1ccc(N(C(=O)Nc2ccc(Cl)c(Cl)c2)C2c3cccn3C(=O)N2c2ccc(Cl)c(Cl)c2)cc1 (stereo unspecified)	> 100	> 100 µM	> 100	> 100 µM	> 100	> 100 µM	–	94.8 µM	> 100 µM	> 100	–	–	–	–	–	–	–	–	–
CC(C(=O)O)C(C)(O)C(=O)O (stereo unspecified)	> 100	> 100 µM	> 100	> 100 µM	> 100	> 100 µM	> 100	–	> 100 µM	> 100	–	–	–	–	–	–	–	–	–
COc1ccc(CN2C3CC2CN(c2ccc(-c4cc(OCC(C)(C)O)cn5ncc(C#N)c45)cn2)C3)cn1	–	> 100 µM	> 100	> 100 µM	> 100	> 100 µM	> 100	> 100 µM	> 100 µM	> 100	6.27	3.59 µM	93.7	1.66	5.27	4.45	> 100	17.5	7.32
Cc1ccc(C2=CC(=O)/C(=C\C(=O)c3ccc(Cl)cc3)O2)cc1	21.6	–	> 100	51.1 µM	4.74	40 µM	4.99	–	6.1 µM	21.4	–	–	–	–	–	–	–	–	–
COc1cc2c(c(O)c1OC)C(=O)C(Cc1ccc(O)cc1)CO2 (stereo unspecified)	> 100	60.7 µM	> 100	–	98.3	> 100 µM	15.3	29.2 µM	> 100 µM	> 100	–	–	–	–	–	–	–	–	–
